# Assay results as given in paper PMC5154685 (Journal of medicinal chemistry, 2016).
# Columns and labels:
# [1] = target: Eis_Mtb acetyltransferase (Mycobacterium tuberculosis, UniProt P9WFK7); type: biochemical; details: for Extent of Eis inhibition of HTS compounds (in words): follow-up description
# AAC(6′)-Ie/APH(2″)-Ia = AAC(6′)-Ie/APH(2″)-Ia (Staphylococcus aureus, UniProt P0A0C1); assay: Inhibitor selectivity, AAC; type: biochemical; details: concentrations as high as 200 μM
# AAC(2′)-Ic = AAC(2′)-Ic (Mycobacterium tuberculosis, UniProt P9WQG9); assay: Inhibitor selectivity, AAC
# Sequence of AAC(2′)-Ic (P9WQG9 whole entry): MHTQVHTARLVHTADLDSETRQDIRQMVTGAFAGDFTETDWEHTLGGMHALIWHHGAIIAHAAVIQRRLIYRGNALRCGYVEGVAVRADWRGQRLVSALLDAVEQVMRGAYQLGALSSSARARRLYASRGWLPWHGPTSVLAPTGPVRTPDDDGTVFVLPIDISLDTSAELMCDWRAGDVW
# Sequence of Eis_Mtb acetyltransferase (P9WFK7 whole entry): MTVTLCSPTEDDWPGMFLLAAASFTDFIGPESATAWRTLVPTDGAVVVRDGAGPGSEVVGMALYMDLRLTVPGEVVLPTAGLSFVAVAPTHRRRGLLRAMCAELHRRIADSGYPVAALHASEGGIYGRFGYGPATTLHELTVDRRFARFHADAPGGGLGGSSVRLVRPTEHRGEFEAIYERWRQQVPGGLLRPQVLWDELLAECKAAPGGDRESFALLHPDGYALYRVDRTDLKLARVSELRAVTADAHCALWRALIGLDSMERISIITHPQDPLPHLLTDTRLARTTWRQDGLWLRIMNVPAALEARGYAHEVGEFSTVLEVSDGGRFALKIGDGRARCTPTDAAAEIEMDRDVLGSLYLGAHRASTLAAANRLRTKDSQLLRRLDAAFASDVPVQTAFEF
# Sequence of AAC(6′)-Ie/APH(2″)-Ia (P0A0C1 whole entry): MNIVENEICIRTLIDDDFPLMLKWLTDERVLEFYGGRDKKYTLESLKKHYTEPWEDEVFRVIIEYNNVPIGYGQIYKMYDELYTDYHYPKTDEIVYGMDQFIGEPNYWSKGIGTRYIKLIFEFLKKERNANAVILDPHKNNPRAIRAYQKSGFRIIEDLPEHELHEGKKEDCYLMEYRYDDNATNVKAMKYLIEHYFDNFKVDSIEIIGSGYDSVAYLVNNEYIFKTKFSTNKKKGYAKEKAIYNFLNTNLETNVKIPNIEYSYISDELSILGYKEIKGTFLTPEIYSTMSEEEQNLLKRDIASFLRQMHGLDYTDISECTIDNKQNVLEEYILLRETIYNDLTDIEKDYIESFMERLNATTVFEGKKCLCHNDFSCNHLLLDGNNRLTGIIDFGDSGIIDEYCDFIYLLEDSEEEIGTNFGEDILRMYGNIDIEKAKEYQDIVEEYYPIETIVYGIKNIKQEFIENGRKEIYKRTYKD
compound,measurement,setting,value
Cc1cc(NS(=O)(=O)c2ccc3[nH]c(=O)c(=O)[nH]c3c2)ccc1Br [Compound 1],Extent of Eis inhibition of HTS compounds (in words),[1],modest Eis inhibition
O=c1[nH]c2ccc(S(=O)(=O)Nc3ccc(Cl)c(C(F)(F)F)c3)cc2[nH]c1=O [Compound 3],Extent of Eis inhibition of HTS compounds (in words),[1],modest Eis inhibition
O=c1[nH]c2ccc(S(=O)(=O)Nc3ccc4c(c3)OCCO4)cc2[nH]c1=O [Compound 4],Extent of Eis inhibition of HTS compounds (in words),[1],modest Eis inhibition
"CN(c1ccc(Br)cc1)S(=O)(=O)c1ccc2[nH]c(=O)c(=O)[nH]c2c1 [Compound 29, N-(4-Bromophenyl)-N-methyl-2,3-dioxo-1,2,3,4-tetrahydro-6-quinoxalinesulfonamide]",Eis inhibition in the HTS (hit or not),[1],hits
"COc1cccc(N(C)S(=O)(=O)c2ccc3[nH]c(=O)c(=O)[nH]c3c2)c1 [Compound 39, N-(3-Methoxyphenyl)-N-methyl-2,3-dioxo-1,2,3,4-tetrahydro-6-quinoxalinesulfonamide]",inhibition of acetylation by AAC(6′)-Ie/APH(2″)-Ia (in words),AAC(6′)-Ie/APH(2″)-Ia,did not inhibit
"CN(c1ccc2ccccc2c1)S(=O)(=O)c1ccc2[nH]c(=O)c(=O)[nH]c2c1 [Compound 46, N-(2-Naphthyl)-N-methyl-2,3-dioxo-1,2,3,4-tetrahydro-6-quinoxalinesulfonamide]",inhibition of acetylation by AAC(2′)-Ic (in words),AAC(2′)-Ic,did not inhibit
same,inhibition of acetylation by AAC(6′)-Ie/APH(2″)-Ia (in words),AAC(6′)-Ie/APH(2″)-Ia,did not inhibit
